Source: patent publication US11690852B2, “Reduction of the incidence or recurrence of breast cancer in postmenopausal women treated with intravaginal sex steroid precursor” (Endorecherche, Inc., priority 2020, dated 2023)
Entries after “also recorded” stand apart in the source; their conditions may differ.

How the values were obtained:
[1] = system: breast intraepithelial neoplasia; details: 5 mg/d for 3 years; 55% of women menopaused; cited from earlier work
breast cancer [2] = details: postmenopausal women; testosterone supplements; cited from earlier work
breast cancer [3] = test: Retrospective cohort analysis of claims data: 1-year incidence of breast cancer (Objective A); type: in vivo, women
Excerpt: (§1) We set out to assess the 1-year incidence rate of breast cancer among women treated with prasterone compared to matched controls of untreated VVA women (Objective A). We also assessed the 1-year recurrence rate of breast cancer among women treated with prasterone with a history of breast cancer compared to matched controls of untreated VVA women (Objective B).
(§2) In order to evaluate whether total exposure to prasterone in the follow-up window alters the results of the primary objectives A and B, we used sensitivity analyses to stratify patients based on cumulative days of supply.
(§3) This retrospective cohort analysis was based on claims data from the Integrated Dataverse (IDV) database from Symphony Health Solutions. Data included in the analysis spanned a 5-year period from February 2015 through January 2020. For both objectives, the index date was defined as the first prasterone prescription fill date for treated women and as the initial VVA diagnosis date for untreated women (FIG. 1). Data were included from women who were at least 45 years of age and had at least one year of data available before and after the index date. Women treated with vaginal estrogen or ospem ifene were excluded. History of breast cancer prior to the index date was assessed. Before matching, 47,395 patients with at least one prescription of intravaginal prasterone (6.5 mg suppository) filled and no history of breast cancer were included and 2,986 with a history of breast cancer. Before matching again, 669,623 women were included in the pool of untreated VVA patients without a history of breast cancer, and 53,896 with a history of breast cancer (FIG. 2).
(§4) To ensure a balanced risk profile across treatment groups the women treated with prasterone were matched with a 1:1 ratio to untreated women based on the following parameters (FIG. 3): • Calendar year • Age • Prior to the index date: • Cancer diagnosis • Breast cancer diagnosis • Use of chemotherapy • Family history of breast cancer • Mammography • Use of estrogen therapy • Obesity and hyperlipidemia • Assessed during the 12 months prior to the index date • Charlson Elixhauser comorbidity index
(§5) Primary objectives A and B included all women meeting the inclusion criteria and having at least one prescription of prasterone filled. We then set minimum exposure thresholds to stratify patients based on the length of exposure. Thresholds were set at least 90 or 180 days of supply. Incidence (objective A) and recurrence (objective B) analyses were conducted in these new groups.

breast cancer [4] = test: Retrospective cohort analysis of claims data: 1-year recurrence of breast cancer in women with a history of breast cancer (Objective B); type: in vivo
Excerpt: as §1, §2, §3, §4, §5

[5] = all ages (≥45 years old), any days of supply
[6] = minimum exposure threshold either 90 days or 180 days of supply

SMILES: CC/C(=C(\c1ccccc1)c1ccc(OCCN(C)C)cc1)c1ccccc1 [Tamoxifen]
- recurrence of breast intraepithelial neoplasia (in words) [1]: halve the recurrence of breast intraepithelial neoplasia

SMILES: C[C@]12CC[C@H]3[C@@H](CCC4=CC(=O)CC[C@@]43C)[C@@H]1CC[C@@H]2O [testosterone]
- breast cancer incidence (in words) (breast cancer [2]): reduction of the breast cancer incidence

SMILES: C[C@]12CC[C@H](O)CC1=CC[C@@H]1[C@@H]2CC[C@]2(C)C(=O)CC[C@@H]12 [Intravaginal prasterone, dehydroepiandrosterone]
- % of incidence of breast cancer (breast cancer [3]; 45 to 54 years old): 0.34%
- incidence ratio (prasterone / untreated VVA) (breast cancer [3]; 45 to 54 years old): 0.85
- % of incidence of breast cancer (breast cancer [3]; 55 to 64 years old): 0.37%
- incidence ratio (prasterone / untreated VVA) (breast cancer [3]; 55 to 64 years old): 0.87
- % of incidence of breast cancer (breast cancer [3]; 65 years old and older): 0.58%
- incidence ratio (prasterone / untreated VVA) (breast cancer [3]; 65 years old and older): 1.03
- incidence ratio (prasterone / untreated VVA) (breast cancer [3]; [5]): 0.89
- % of incidence of breast cancer (breast cancer [3]; all ages (≥45 years old), any days of supply, 1-year, 6.5 mg suppository): 0.39%
- % of incidence of breast cancer (breast cancer [3]; at least 90 days of supply): 0.28%
- incidence ratio (prasterone / untreated VVA) (breast cancer [3]; at least 90 days of supply): 0.55
- % of incidence of breast cancer (breast cancer [3]; at least 180 days of supply): 0.25%
- incidence ratio (prasterone / untreated VVA) (breast cancer [3]; at least 180 days of supply): 0.48
- incidence of breast cancer compared to the untreated VVA group (in words) (breast cancer [3]; at least one prescription filled, all ages and age groups 45-54, 55-64, 65+): no statistically significant difference; also recorded: no statistical difference
- incidence of breast cancer compared to the untreated VVA groups (in words) (breast cancer [3]; [6]): significant reduction
- % of recurrence of breast cancer (breast cancer [4]; 45 to 54 years old): 41.63%
- recurrence ratio (prasterone / untreated VVA) (breast cancer [4]; 45 to 54 years old): 0.84
- % of recurrence of breast cancer (breast cancer [4]; 55 to 64 years old): 31.42%
- recurrence ratio (prasterone / untreated VVA) (breast cancer [4]; 55 to 64 years old): 0.82
- % of recurrence of breast cancer (breast cancer [4]; 65 years old and older): 32.77%
- recurrence ratio (prasterone / untreated VVA) (breast cancer [4]; 65 years old and older): 0.91
- recurrence ratio (prasterone / untreated VVA) (breast cancer [4]; [5]): 0.85
- % of recurrence of breast cancer (breast cancer [4]; all ages (≥45 years old), any days of supply, history of breast cancer): 34.21%
- Recurrence analysis: % of incidence (breast cancer [4]; at least 90 days of supply): 30.48%
- recurrence ratio (prasterone / untreated VVA) (breast cancer [4]; at least 90 days of supply): 0.83
- Recurrence analysis: % of incidence (breast cancer [4]; at least 180 days of supply): 30.29%
- recurrence ratio (prasterone / untreated VVA) (breast cancer [4]; at least 180 days of supply): 0.78
- recurrence of breast cancer compared to the untreated VVA group (in words) (breast cancer [4]; at least one prescription filled, all ages and three age groups): significantly lower; also recorded: significant reduction of recurrence
- recurrence of breast cancer compared to the untreated VVA groups (in words) (breast cancer [4]; [6]): significant reduction
